Measurements: patent US9096624B2 (OSI Pharmaceuticals, LLC, priority 2009, dated 2015)

How the values were obtained:
FAK [1] = molecular target: T1, FAK (Homo sapiens, UniProt Q05397); assay: biochemical
FAK [2] = molecular target: T1, FAK; assay: Cell-based capture ELISA for inhibition of FAK autophosphorylation [pY397] in MiaPaCa2 cells
Method: Cell-Based Assays for Inhibition of FAK Autophosphorylation: MiaPaCa2 and U87MG
ELISA kit from Invitrogen (KHO0441).
Reagents Provided in Biosource FAK [pY397]
The cells were then suspended in cell assay medium.

[3] = MIA-PaCa2 cells on fibronectin, 2 h, no plasma, read-out: Mean FAK Cell Mechanistic IC50 MIA-PaCa2
[4] = MIA-PaCa2 cells, + 50% human plasma, read-out: Mean FAK Cell Mechanistic IC50 + 50% hP MIA-PaCa2
[5] = MIA-PaCa2 cells, + 50% mouse plasma (Table 2), read-out: Mean FAK Cell Mechanistic IC50 + 50% mP MIA-PaCa2
[6] = MIA-PaCa2 cells, + 50% mouse plasma (Table 3), read-out: Mean FAK Cell Mechanistic IC50 + 50% mP MIA-PaCa2

T1 sequence (Q05397 whole entry): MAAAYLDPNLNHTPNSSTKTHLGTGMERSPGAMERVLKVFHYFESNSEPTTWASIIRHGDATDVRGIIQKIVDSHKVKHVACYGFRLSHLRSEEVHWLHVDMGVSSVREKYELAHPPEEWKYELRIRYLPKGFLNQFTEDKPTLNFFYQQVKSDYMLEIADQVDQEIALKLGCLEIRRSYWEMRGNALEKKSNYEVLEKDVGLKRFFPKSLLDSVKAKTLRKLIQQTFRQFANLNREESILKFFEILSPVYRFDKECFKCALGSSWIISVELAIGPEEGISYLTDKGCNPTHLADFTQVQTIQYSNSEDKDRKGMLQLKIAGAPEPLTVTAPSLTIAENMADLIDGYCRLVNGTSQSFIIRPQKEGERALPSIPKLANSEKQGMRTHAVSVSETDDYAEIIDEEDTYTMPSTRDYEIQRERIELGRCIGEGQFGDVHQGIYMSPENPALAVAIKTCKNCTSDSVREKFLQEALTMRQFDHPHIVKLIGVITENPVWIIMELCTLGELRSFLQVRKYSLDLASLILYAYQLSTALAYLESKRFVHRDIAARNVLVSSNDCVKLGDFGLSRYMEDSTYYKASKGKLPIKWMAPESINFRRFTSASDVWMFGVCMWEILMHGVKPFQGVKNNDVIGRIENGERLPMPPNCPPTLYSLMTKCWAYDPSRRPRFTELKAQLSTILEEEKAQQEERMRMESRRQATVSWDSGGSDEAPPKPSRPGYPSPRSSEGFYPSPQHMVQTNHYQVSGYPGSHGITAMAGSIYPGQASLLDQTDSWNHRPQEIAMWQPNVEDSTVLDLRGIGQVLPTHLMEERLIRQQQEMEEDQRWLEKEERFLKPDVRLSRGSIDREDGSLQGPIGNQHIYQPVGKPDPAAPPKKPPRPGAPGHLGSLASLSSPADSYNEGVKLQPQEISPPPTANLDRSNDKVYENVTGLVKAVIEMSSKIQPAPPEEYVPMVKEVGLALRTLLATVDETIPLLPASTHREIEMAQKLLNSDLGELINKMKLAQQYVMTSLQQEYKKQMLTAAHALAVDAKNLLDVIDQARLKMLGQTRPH

Row | IC50 (FAK [2]; [5]) [µM] | SMILES | IC50 (FAK [1]) [µM] | IC50 (FAK [2]; [3]) [µM] | IC50 (FAK [2]; [4]) [µM] | IC50 (FAK [2]; [6]) [µM]
1 | < 1 | CCP(=O)(CC)Cc1ccc(Nc2ncc(C(F)(F)F)c(NCc3cccnc3N(C)S(C)(=O)=O)n2)cc1 [Example 10, N-[3-({[2-({4-[(diethylphosphoryl)methyl]phenyl}amino)-5-(trifluoromethyl)pyrimidin-4-yl]amino}methyl)pyridin-2-yl]-N-methylmethanesulfonamide] | < 1 | < 1 | < 1 | 
2 |  | CCOP(=O)(Cc1ccc(Nc2ncc(C(F)(F)F)c(Nc3ccc(CN4CCCC4)c4c3C(=O)N(C)C4)n2)c(OC)c1)OCC [Example 110, Diethyl (3-methoxy-4-{[4-{[2-methyl-3-oxo-7-(pyrrolidin-1-ylmethyl)-2,3-dihydro-1H-isoindol-4-yl]amino}-5-(trifluoromethyl)pyrimidin-2-yl]amino}benzyl)phosphonate] | < 1 |  |  | < 1
3 |  | CCOP(=O)(Cc1ccc(Nc2ncc(C(F)(F)F)c(Nc3ccc(N4CCN(CC(=O)O)CC4)c4c3C(=O)N(C)C4)n2)cc1)OCC [Example 251, [4-(7-{[2-({4-[(Diethoxyphosphoryl)methyl]phenyl}amino)-5-(trifluoromethyl)pyrimidin-4-yl]amino}-2-methyl-1-oxo-2,3-dihydro-1H-isoindol-4-yl)piperazin-1-yl]acetic acid] | < 1 |  |  | < 1
4 |  | CCOP(=O)(OCC)C(OCC(F)(F)F)c1ccc(Nc2ncc(C(F)(F)F)c(Nc3ccccc3C(=O)NC)n2)cc1 (centres unmarked) [Example 115, Diethyl [(4-{[4-{[2-(methylcarbamoyl)phenyl]amino}-5-(trifluoromethyl)pyrimidin-2-yl]amino}phenyl)(2,2,2-trifluoroethoxy)methyl]phosphonate] | < 1 |  |  | 1 to 10
5 | 1 to 10 | CN(c1ncccc1CNc1nc(Nc2ccc(CP(C)(C)=O)cc2)ncc1C(F)(F)F)S(C)(=O)=O [Example 12, N-[3-({[2-({4-[(Dimethylphosphoryl)methyl]phenyl}amino)-5-(trifluoromethyl)pyrimidin-4-yl]amino}methyl)pyridin-2-yl]-N-methylmethanesulfonamide] | < 1 | 1 to 10 | 1 to 10 | 
6 |  | CCOP(C)(=O)Cc1ccc(Nc2ncc(C(F)(F)F)c(Nc3ccc(C#CC(C)(C)O)c4c3C(=O)N(C)C4)n2)cc1 (centres unmarked) [Example 75] | < 1 | < 1 | < 1 | 
7 |  | CCOP(=O)(Cc1ccc(Nc2ncc(C(F)(F)F)c(Nc3ccc(C(=O)N4CCCC4)c4c3C(=O)N(C)C4)n2)c(OC)c1)OCC [Example 117, Diethyl (3-methoxy-4-{[4-{[2-methyl-3-oxo-7-(pyrrolidin-1-ylcarbonyl)-2,3-dihydro-1H-isoindol-4-yl]amino}-5-(trifluoromethyl)pyrimidin-2-yl]amino}benzyl)phosphonate] | < 1 |  |  | < 1
8 |  | CCOP(C)(=O)Cc1ccc(Nc2ncc(C(F)(F)F)c(Nc3ccc(-c4cn[nH]c4)c4c3C(=O)N(C)C4)n2)cc1 (centres unmarked) [Example 67, Ethyl methyl(4-{[4-{[2-methyl-3-oxo-7-(1H-pyrazol-4-yl)-2,3-dihydro-1H-isoindol-4-yl]amino}-5-(trifluoromethyl)pyrimidin-2-yl]amino}benzyl)phosphinate] | < 1 | < 1 | < 1 | 
9 |  | COP(=O)(Cc1cccc(Nc2ncc(C(F)(F)F)c(NCc3cccnc3N(C)S(C)(=O)=O)n2)c1)OC [Example 56, dimethyl [3-({4-[({2-[methyl(methylsulfonyl)amino]pyridin-3-yl}methyl)amino]-5-(trifluoromethyl)pyrimidin-2-yl}amino)benzyl]phosphonate] | < 1 | < 1 | < 1 | 
10 |  | CCOP(=O)(Cc1ccc(Nc2ncc(C(F)(F)F)c(Nc3ccc(C4CCC(N(C)C)CC4)c4c3C(=O)N(C)C4)n2)c(OC)c1)OCC (centres unmarked) [Example 233, Diethyl (4-{[4-({7-[4-(dimethylamino)cyclohexyl]-2-methyl-3-oxo-2,3-dihydro-1H-isoindol-4-yl}amino)-5-(trifluoromethyl)pyrimidin-2-yl]amino}-3-methoxybenzyl)phosphonate] | < 1 |  |  | < 1
11 |  | CCOP(=O)(Cc1ccc(Nc2ncc(C(F)(F)F)c(Nc3ccc([C@H]4CC[C@@H](OCC)CC4)c4c3C(=O)N(C)C4)n2)cc1)OCC [Example 166, Diethyl (4-{[4-{[7-(cis-4-ethoxycyclohexyl)-2-methyl-3-oxo-2,3-dihydro-1H-isoindol-4-yl]amino}-5-(trifluoromethyl)pyrimidin-2-yl]amino}benzyl)phosphonate] | < 1 |  |  | < 1
12 |  | CCOP(=O)(Cc1ccc(Nc2ncc(C(F)(F)F)c(Nc3ccc(OC(C)C)c4c3C(=O)N(C)C4)n2)cc1)OCC [Example 207, Diethyl (4-{[4-{[2-methyl-3-oxo-7-(propan-2-yloxy)-2,3-dihydro-1H-isoindol-4-yl]amino}-5-(trifluoromethyl)pyrimidin-2-yl]amino}benzyl)phosphonate] | < 1 |  |  | < 1
13 |  | CCOP(=O)(O)Cc1ccc(Nc2ncc(C(F)(F)F)c(NCc3cccnc3N(C)S(C)(=O)=O)n2)cc1 [Example 42, Ethyl hydrogen [4-({4-[({2-[methyl(methylsulfonyl)amino]pyridin-3-yl}methyl)amino]-5-(trifluoromethyl)pyrimidin-2-yl}amino)benzyl]phosphonate] | < 1 | 1 to 10 | 1 to 10 | 
14 | 1 to 10 | CC(C)COP(=O)(Cc1ccc(Nc2ncc(C(F)(F)F)c(NCc3cccnc3N(C)S(C)(=O)=O)n2)cc1)OCC(C)C [Example 30, bis(2-methylpropyl) [4-({4-[({2-[methyl(methylsulfonyl)amino]pyridin-3-yl}methyl)amino]-5-(trifluoromethyl)pyrimidin-2-yl}amino)benzyl]phosphonate] | < 1 | 1 to 10 | 1 to 10 | 
15 | < 1 | CC(C)P(=O)(Cc1ccc(Nc2ncc(C(F)(F)F)c(NCc3cccnc3N(C)S(C)(=O)=O)n2)cc1)C(C)C [Example 8, N-[3-({[2-({4-[(Dipropan-2-ylphosphoryl)methyl]phenyl}amino)-5-(trifluoromethyl)pyrimidin-4-yl]amino}methyl)pyridin-2-yl]-N-methylmethanesulfonamide] | < 1 | < 1 | < 1 | 
16 |  | CCOP(=O)(Cc1ccc(Nc2ncc(C(F)(F)F)c(Nc3ccc(OC)c4c3C(=O)N(C)C4)n2)c(OC)c1)OCC [Example 209, Diethyl [3-methoxy-4-({4-[(7-methoxy-2-methyl-3-oxo-2,3-dihydro-1H-isoindol-4-yl)amino]-5-(trifluoromethyl)pyrimidin-2-yl}amino)benzyl]phosphonate] | < 1 |  |  | < 1
17 |  | CCOP(C)(=O)Cc1ccc(Nc2ncc(C(F)(F)F)c(Nc3ccc(C#CCO)c4c3C(=O)N(C)C4)n2)cc1 (centres unmarked) [Example 77, Ethyl (4-{[4-{[7-(3-hydroxyprop-1-yn-1-yl)-2-methyl-3-oxo-2,3-dihydro-1H-isoindol-4-yl]amino}-5-(trifluoromethyl)pyrimidin-2-yl]amino}benzyl)methylphosphinate] | < 1 | < 1 | < 1 | 
18 |  | CCOP(=O)(Cc1ccc(Nc2ncc(C(F)(F)F)c(Nc3ccc([C@H]4CC[C@@H](O)CC4)cc3C(=O)N(C)C)n2)c(OC)c1)OCC [Example 194, Diethyl (4-{[4-{[2-(dimethylcarbamoyl)-4-(cis-4-hydroxycyclohexyl)phenyl]amino}-5-(trifluoromethyl)pyrimidin-2-yl]amino}-3-methoxybenzyl)phosphonate] | < 1 |  |  | 1 to 10
19 | > 10 | CN(c1ncccc1CNc1nc(Nc2cccc(CP(=O)(OCC(C)(C)C)OCC(C)(C)C)c2)ncc1C(F)(F)F)S(C)(=O)=O [Example 55, bis(2,2-dimethylpropyl) [3-({4-[({2-[methyl(methylsulfonyl)amino]pyridin-3-yl}methyl)amino]-5-(trifluoromethyl)pyrimidin-2-yl}amino)benzyl]phosphonate] | < 1 |  |  | 
20 |  | CCOP(=O)(Cc1ccc(Nc2ncc(C(F)(F)F)c(Nc3ccc([C@H]4CC[C@@H](O)CC4)cc3C(=O)NC)n2)cc1)OCC [Example 138, Diethyl (4-{[4-{[4-(cis-4-hydroxycyclohexyl)-2-(methylcarbamoyl)phenyl]amino}-5-(trifluoromethyl)pyrimidin-2-yl]amino}benzyl)phosphonate] | < 1 |  |  | < 1

Row | SMILES | IC50 (FAK [2]; [5]) [µM] | IC50 (FAK [1]) [µM] | IC50 (FAK [2]; [3]) [µM] | IC50 (FAK [2]; [4]) [µM] | IC50 (FAK [2]; [6]) [µM]
21 | CCOP(=O)(Cc1ccc(Nc2ncc(C(F)(F)F)c(Nc3ccc(N4CCCC(O)C4)c4c3C(=O)N(C)C4)n2)c(OC)c1)OCC (centres unmarked) [Example 86, Diethyl (4-{[4-{[7-(3-hydroxypiperidin-1-yl)-2-methyl-3-oxo-2,3-dihydro-1H-isoindol-4-yl]amino}-5-(trifluoromethyl)pyrimidin-2-yl]amino}-3-methoxybenzyl)phosphonate] | < 1 | < 1 |  |  | 
22 | CCOP(=O)(Cc1ccc(Nc2ncc(C(F)(F)F)c(Nc3ccc([C@H]4CC[C@H](C(=O)O)CC4)c4c3C(=O)N(C)C4)n2)c(OC)c1)OCC [Example 90, Trans-4-(7-{[2-({4-[(diethoxyphosphoryl)methyl]-2-methoxyphenyl}amino)-5-(trifluoromethyl)pyrimidin-4-yl]amino}-2-methyl-1-oxo-2,3-dihydro-1H-isoindol-4-yl)cyclohexanecarboxylic acid] | < 1 | < 1 |  |  | 
23 | CCOP(C)(=O)Cc1ccc(Nc2ncc(C(F)(F)F)c(Nc3ccc(-c4ccccc4)c4c3C(=O)N(C)C4)n2)cc1 (centres unmarked) [Example 66, Ethyl methyl[4-({4-[(2-methyl-3-oxo-7-phenyl-2,3-dihydro-1H-isoindol-4-yl)amino]-5-(trifluoromethyl)pyrimidin-2-yl}amino)benzyl]phosphinate] | < 1 | < 1 |  |  | 
